{"source": "patent US9339509B2", "about": "“Methods of use to orally and topically treat acne and other skin conditions by administering a 19-nor containing vitamin D analog with or without a retinoid” (Wisconsin Alumni Research Foundation, priority 2006, dated 2016)", "origin": "cited, not measured here", "system": "retinoic acid receptors (RARs)", "settings": "Repa J J et al., 1993; cited from earlier work"}
{"smiles": "CC1=C(/C=C/C(C)=C/C=C/C(C)=C\\C(=O)O)C(C)(C)CCC1", "note": "[13-cis retinoic acid, 13-cis-retinoic acid]", "values": [{"measurement": "binding to the RARs", "value": "does not bind"}]}
